Source: patent US12178809B2, “Pyridinyl sulfonamide derivatives, pharmaceutical compositions and uses thereof” (Boehringer Ingelheim International GmbH, priority 2018, dated 2024)
Where a name gives a salt, the structure may show the parent alone. Read-outs that look alike come from different tables or passages of the source.

Experiments:
human AOC3 enzyme = human AOC3 enzyme (Homo sapiens (Human), UniProt Q16853); assay: AOC3 biochemical assay (MAO-Glo)
From the text: The MAO-Glo™ Assay (commercially available from PROMEGA, #V1402) provides a sensitive method for the measurement of monoamine oxidase (MAO) activity (Valley, M. P. et al., 2006, Anal. Biochem. 359: 238-246) from a variety of tissues, biofluids or recombinant expressed or purified enzymes. As substrate a derivate of the beetle luciferin ((4S)-4,5-dihydro-2-(6-hydroxybenzothiazolyl)-4-thiazole-carboxylic acid) is used, which is oxidized at a primary amine moiety. After a spontaneous elimination and a catalyzed esterase reaction, the turnover of the luciferine by the luciferase is recorded as a signal of AOC3 activity.
An aliquot of 3 μL of the compound dilution is added to a 384 well plate (Optiplate, PS, flat bottom, white, PERKIN ELMER, #6007290) with a final DMSO concentration of 6.6%. Recombinant CHO cells, overexpressing the human (1500 cells/well), mouse (1000 cells/well) or rat (500 cells/well) AOC3 enzyme are diluted in reaction buffer and added in a volume of 15 μL to the wells. After incubation for 20 minutes at 37° C., 2 μL of MAO substrate (dissolved in DMSO at 16 mM, adjusted to assay concentration in reaction buffer to a final assay concentration of 20 μM) is added and further incubated for 60 minutes at 37° C. The turnover of the substrate is determined by the addition of 20 μL of the detection-mix which was generated by the addition of reconstitution buffer with esterase (PROMEGA, #V1402) to the luciferine detection reagent (PROMEGA, #V1402). After an incubation period of 20 minutes, the luminescent signal is measured with Envision 2104 Multilabel Reader (PERKIN ELMER).

AOC1 = AOC1 (Homo sapiens (Human), UniProt P19801); assay: AOC1 biochemical assay (Amplex Red)
Description: The Amplex® Red Assay (available from Thermo Fisher Scientific) provides a sensitive method for the detection of H2O2 generated during enzymatic reactions like the amine oxidation catalyzed by AOC1. The assay reagent is a colorless substrate (N-acetyl-3,7-dihydroxyphenoxazine) that reacts in a 1:1 stoichiometry with hydrogen peroxide (H2O2) to produce the fluorescent dye resorufin (7-hydroxyphenoxazin-3-one, excitation/emission maxima=570/585 nm).
An aliquot of 3 μL of the compound dilution is added to a 384 well plate (Optiplate, PS, flat bottom F, black, PERKIN ELMER, #6007270) in a DMSO concentration of 6.6%.
An AOC1 enzyme aliquot (#8297-AO-010, R&D Systems) is thawed on ice, diluted in reaction buffer and added in a volume of 7 μL to the wells to give a final assay concentration of 1 ng/well. After incubation of inhibitor and enzyme for 30 minutes at 37° C., the enzymatic reaction is started with the addition of 10 μL of Amplex® Red reaction mix (final assay concentration: 100 mM sodiumphosphate, 120 μM Amplex® Red reagent (#A22177 Molecular Probes), 1.5 U/mL Horseradish Peroxidase (#P8375 Sigma-Aldrich), 200 μM putrescine (#P7505 Sigma-Alrdich), 0.05% Pluronic F-127 (#P3000MP Sigma-Aldrich), pH 7.4, 37° C.).
After an incubation for 30 minutes at 37° C. the turnover of the substrate is determined directly (or after the addition of an excess of an amine-oxidase inhibitor) with a fluorescence reader (Ex 540 nm/Em 590 nm) like Envision 2104 Multilabel Reader (PERKIN ELMER).

AOC2 = AOC2 (Homo sapiens (Human), UniProt O75106); assay: AOC2 biochemical assay (Amplex Red)
Description: An aliquot of 5 μL of the compound dilution is added to a 96 well plate (flat bottom F, black, GREINER bio-one, #655900) in a DMSO concentration of 2%. […] Cells are cultured for 3 days in EMEM culture medium containing 10% FCS (#04-00-1A, Biological Industries). After washing twice with ice cold PBS, cells are lysed by mechanic homogenation and cleared supernatants are shock frozen in liquid nitrogen and stored at -80° C. […] An Aliquot of 45 μL is added to the compound dilution and incubated for 30 min at 37° C. The enzymatic reaction is started with the addition of 50 μL of Amplex® Red reaction mix (final assay concentration: 100 mM sodiumphosphate, 120 μM Amplex® Red reagent (#A22177 Molecular Probes), 1.5 U/mL Horseradish Peroxidase (#P8375 Sigma-Aldrich), 2 mM phenylethylamine (#[…] Sigma-Aldrich), 0.05% Pluronic F-127 (#P3000MP Sigma-Aldrich), pH 7.4, 37° C.). The turnover per time of the substrate is determined directly with a fluorescence reader (Ex 540 nm/Em 590 nm) like Envision 2104 Multilabel Reader (PERKIN ELMER) for 60 min.

[1] = comparison table, unit μM, read-out: IC50 AOC1
[2] = comparison table, read-out: IC50 AOC3
[3] = comparison table, read-out: IC50 AOC2

Sequence of AOC2 (O75106 whole entry): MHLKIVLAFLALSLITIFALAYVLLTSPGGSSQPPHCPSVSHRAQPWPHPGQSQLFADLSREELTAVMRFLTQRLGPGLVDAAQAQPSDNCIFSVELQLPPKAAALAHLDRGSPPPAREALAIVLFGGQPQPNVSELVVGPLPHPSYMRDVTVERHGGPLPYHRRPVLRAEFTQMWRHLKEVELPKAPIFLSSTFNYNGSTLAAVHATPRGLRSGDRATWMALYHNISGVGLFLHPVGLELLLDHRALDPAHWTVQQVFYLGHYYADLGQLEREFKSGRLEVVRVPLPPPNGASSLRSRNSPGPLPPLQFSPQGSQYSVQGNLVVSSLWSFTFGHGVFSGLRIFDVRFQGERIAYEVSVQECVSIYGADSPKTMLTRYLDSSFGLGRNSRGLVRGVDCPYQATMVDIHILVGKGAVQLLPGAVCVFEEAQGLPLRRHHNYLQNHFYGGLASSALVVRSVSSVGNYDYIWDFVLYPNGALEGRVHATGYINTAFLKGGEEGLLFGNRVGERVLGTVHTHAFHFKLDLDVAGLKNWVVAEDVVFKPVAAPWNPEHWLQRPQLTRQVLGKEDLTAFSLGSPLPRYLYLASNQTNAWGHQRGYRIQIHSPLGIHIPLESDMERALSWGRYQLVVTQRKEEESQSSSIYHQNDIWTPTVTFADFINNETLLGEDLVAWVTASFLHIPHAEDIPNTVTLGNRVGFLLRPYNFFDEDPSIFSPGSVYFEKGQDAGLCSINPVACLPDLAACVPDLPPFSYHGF
Sequence of human AOC3 enzyme (Q16853 whole entry): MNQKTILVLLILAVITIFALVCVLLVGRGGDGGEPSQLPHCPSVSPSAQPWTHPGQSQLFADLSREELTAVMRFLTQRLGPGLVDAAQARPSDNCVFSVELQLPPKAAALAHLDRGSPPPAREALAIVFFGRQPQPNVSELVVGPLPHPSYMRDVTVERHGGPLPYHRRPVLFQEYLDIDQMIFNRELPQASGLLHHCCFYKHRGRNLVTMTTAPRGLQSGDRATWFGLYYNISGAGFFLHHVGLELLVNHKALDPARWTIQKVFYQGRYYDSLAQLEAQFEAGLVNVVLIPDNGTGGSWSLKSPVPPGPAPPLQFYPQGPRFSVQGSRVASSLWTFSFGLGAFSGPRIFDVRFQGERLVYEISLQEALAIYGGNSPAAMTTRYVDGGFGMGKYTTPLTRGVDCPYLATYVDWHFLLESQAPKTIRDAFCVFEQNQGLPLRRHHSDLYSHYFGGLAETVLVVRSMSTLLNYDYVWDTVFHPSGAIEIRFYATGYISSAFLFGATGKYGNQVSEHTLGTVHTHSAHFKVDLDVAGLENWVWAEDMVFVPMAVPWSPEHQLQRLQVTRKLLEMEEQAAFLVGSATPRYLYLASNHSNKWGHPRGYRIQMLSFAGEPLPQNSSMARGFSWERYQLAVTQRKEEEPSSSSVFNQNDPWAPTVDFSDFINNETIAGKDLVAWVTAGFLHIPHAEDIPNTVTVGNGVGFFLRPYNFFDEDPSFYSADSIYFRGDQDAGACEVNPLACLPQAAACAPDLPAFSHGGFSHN
Sequence of AOC1 (P19801 20-751): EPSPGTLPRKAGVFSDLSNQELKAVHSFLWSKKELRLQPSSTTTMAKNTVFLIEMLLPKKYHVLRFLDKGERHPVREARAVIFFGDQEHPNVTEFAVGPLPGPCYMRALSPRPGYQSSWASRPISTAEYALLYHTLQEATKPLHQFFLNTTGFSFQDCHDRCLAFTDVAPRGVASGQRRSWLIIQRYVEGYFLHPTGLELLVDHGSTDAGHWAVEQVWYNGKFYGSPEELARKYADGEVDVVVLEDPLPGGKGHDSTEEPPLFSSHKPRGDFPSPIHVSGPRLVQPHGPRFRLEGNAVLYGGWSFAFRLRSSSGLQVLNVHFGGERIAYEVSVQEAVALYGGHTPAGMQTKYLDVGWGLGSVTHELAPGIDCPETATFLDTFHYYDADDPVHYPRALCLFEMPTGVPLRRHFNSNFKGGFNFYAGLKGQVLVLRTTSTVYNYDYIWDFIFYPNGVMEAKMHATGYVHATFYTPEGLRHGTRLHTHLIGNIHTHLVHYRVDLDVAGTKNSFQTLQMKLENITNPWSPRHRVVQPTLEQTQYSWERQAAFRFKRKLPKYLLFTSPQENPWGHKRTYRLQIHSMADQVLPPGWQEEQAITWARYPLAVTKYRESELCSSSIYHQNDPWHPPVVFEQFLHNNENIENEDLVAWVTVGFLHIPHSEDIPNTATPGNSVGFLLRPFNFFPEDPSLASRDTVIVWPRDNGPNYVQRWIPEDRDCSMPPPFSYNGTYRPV

Row | Compound | IC50 (human AOC3 enzyme; read-out: AOC3 IC50) [nM] | IC50 (AOC1; read-out: AOC1 IC50) [µM] | IC50 (AOC2; read-out: AOC2 IC50) [nM] | IC50 (AOC1; [1]) [µM] | fold less active against AOC2 as compared to AOC3 (ratio IC50 AOC2/IC50 AOC3) (AOC2) | IC50 (human AOC3 enzyme; [2]) [nM] | IC50 (AOC2; [3]) [nM] | IC50 (AOC1; comparison table, read-out: IC50 AOC1) [µM]
1 | CN(C)C(=O)C1CN(S(=O)(=O)c2ccc(OC/C(=C/F)CN)nc2)C1 [Example 28] | 42 | > 49.9 | 158 | – | – | – | – | –
2 | NC/C(=C\F)COc1ccc(S(=O)(=O)N2C[C@H]3C[C@@]3(C(=O)N3CCOCC3)C2)cn1 [Example 30] | 46 | 11.4 | 126 | – | – | – | – | –
3 | NC/C(=C\F)COc1ccc(S(=O)(=O)N2CC(C(N)=O)C2)cn1 [Example 31] | 21 | > 50 | 121 | – | – | – | – | –
4 | NC/C(=C\F)COc1ccc(S(=O)(=O)N2CC(C3CCN(C(=O)C4CC4)CC3)C2)cn1 [Example 32] | 17 | 39.5 | 73 | – | – | – | – | –
5 | NC/C(=C\F)COc1ccc(S(=O)(=O)N2CC[C@@H](C(N)=O)C2)cn1 [Example 33] | 15 | 33 | 49 | – | – | – | – | –
6 | CCNC(=O)C1(C)CCN(S(=O)(=O)c2ccc(OC/C(=C/F)CN)nc2)CC1 [Example 34] | 14 | 15.8 | 14 | – | – | – | – | –
7 | NC/C(=C\F)COc1ccc(S(=O)(=O)N2CC[C@H](O)C2)cn1 [Example 35, (S)-1-[6-((E)-2-Aminomethyl-3-fluoro-allyloxy)-pyridine-3-sulfonyl]-pyrrolidin-3-ol] | 38 | > 50 | 207 | > 50 | ca. 5 fold | – | – | –
8 | NC/C(=C\F)COc1ccc(S(=O)(=O)N2CC[C@@H](O)C2)cn1 [Example 36] | 67 | > 50 | 551 | – | – | – | – | –
9 | NC/C(=C\F)COc1ccc(S(=O)(=O)N2CC(F)(F)C2)cn1 [Example 37] | 15 | 22.6 | 451 | – | – | – | – | –
10 | NC/C(=C\F)COc1ccc(S(=O)(=O)N2CCCC2)cn1 [Example 38] | 13 | > 50 | 278 | – | – | – | – | –
11 | NC/C(=C\F)COc1ccc(S(=O)(=O)N2CCC2)cn1 [Example 39] | 19 | 17 | 262 | – | – | – | – | –
12 | COC1CCN(S(=O)(=O)c2ccc(OC/C(=C/F)CN)nc2)C1.O=C(O)C(F)(F)F (stereo not shown) [Example 40] | 26 | > 50 | 125 | > 50 | ca. 5 fold | 26 | 125 | –
13 | NC/C(=C\F)COc1ccc(S(=O)(=O)N2CC3CC3C2)cn1 (stereo not shown) [Example 41] | 5 | 25.4 | 123 | – | – | – | – | –
14 | COC1CN(S(=O)(=O)c2ccc(OC/C(=C/F)CN)nc2)C1 [Example 42] | 20 | > 50 | 87 | – | – | 20 | 87 | > 50
15 | NC/C(=C\F)COc1ccc(S(=O)(=O)N2CCC(F)(F)C2)cn1 [Example 43] | 16 | 36.5 | 69 | – | – | – | – | –
16 | CNC(=O)C1CCN(S(=O)(=O)c2ccc(OC/C(=C/F)CN)nc2)CC1 [Example 44, 1-[6-((E)-2-Aminomethyl-3-fluoro-allyloxy)-pyridine-3-sulfonyl]-piperidine-4-carboxylic acid methylamide trifluoroacetate] | 14 | > 50 | 574 | – | – | – | – | –
17 | NC/C(=C\F)COc1ccc(S(=O)(=O)N2CCC(O)CC2)cn1.O=C(O)C(F)(F)F [Example 45] | 10 | 11.4 | 307 | – | ca. 30 fold | – | – | –
18 | COC1CCN(S(=O)(=O)c2ccc(OC/C(=C/F)CN)nc2)CC1 [Example 46] | 10 | > 50 | 234 | – | – | – | – | –
19 | NC/C(=C\F)COc1ccc(S(=O)(=O)N2CCCCC2)cn1 [Example 47] | 5 | 23.2 | 144 | – | – | – | – | –
20 | CC1(O)CCN(S(=O)(=O)c2ccc(OC/C(=C/F)CN)nc2)CC1 [Example 48] | 24 | 1.49 | 67 | – | – | – | – | –
